Results taken from ChEMBL document CHEMBL1201862, “PubChem BioAssay data set” (2004).
Active and inactive are the calls of the source.

Tests used:
[1] = target: T1, Cytochrome P450 1A2 (Homo sapiens, UniProt P05177);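 also: PubChem cytochrome P450 panel assay, CYP1A2 panel member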
T1 sequence (P05177 whole entry): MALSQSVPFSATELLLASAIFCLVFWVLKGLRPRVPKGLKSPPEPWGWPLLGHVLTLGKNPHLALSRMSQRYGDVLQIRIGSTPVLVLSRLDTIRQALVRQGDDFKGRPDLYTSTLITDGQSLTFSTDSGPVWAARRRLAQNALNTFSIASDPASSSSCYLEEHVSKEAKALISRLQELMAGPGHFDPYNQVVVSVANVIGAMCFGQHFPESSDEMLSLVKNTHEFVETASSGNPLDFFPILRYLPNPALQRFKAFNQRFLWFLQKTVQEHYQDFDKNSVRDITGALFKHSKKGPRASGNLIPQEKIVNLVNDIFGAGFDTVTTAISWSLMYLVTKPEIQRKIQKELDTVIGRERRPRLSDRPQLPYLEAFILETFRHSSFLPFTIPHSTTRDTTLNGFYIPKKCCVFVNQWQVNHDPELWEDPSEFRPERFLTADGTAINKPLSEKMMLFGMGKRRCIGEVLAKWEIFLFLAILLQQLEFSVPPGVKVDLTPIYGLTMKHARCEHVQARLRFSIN

[2] = target: T2, Corticotropin-releasing factor receptor 2/Corticotropin-releasing factor-binding protein (Homo sapiens, UniProt P24387+Q13324); test: Dose Response confirmation of uHTS hits for small molecule antagonists of the CRF-binding protein and CRF-R2 receptor complex.; assay type: functional; conditions: read-out: IC50_Mean
T2 sequence (Q13324 whole entry): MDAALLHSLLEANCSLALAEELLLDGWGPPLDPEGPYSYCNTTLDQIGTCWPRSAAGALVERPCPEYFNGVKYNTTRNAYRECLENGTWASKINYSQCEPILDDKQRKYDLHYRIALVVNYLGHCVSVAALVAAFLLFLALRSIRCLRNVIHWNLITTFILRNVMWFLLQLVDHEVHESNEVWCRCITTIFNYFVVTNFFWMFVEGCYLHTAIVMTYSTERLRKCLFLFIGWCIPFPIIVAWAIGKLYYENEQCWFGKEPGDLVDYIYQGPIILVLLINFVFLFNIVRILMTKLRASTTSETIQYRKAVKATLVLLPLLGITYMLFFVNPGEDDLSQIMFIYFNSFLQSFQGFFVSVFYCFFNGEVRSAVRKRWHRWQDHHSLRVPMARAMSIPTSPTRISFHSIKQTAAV
T2 sequence (P24387 whole entry): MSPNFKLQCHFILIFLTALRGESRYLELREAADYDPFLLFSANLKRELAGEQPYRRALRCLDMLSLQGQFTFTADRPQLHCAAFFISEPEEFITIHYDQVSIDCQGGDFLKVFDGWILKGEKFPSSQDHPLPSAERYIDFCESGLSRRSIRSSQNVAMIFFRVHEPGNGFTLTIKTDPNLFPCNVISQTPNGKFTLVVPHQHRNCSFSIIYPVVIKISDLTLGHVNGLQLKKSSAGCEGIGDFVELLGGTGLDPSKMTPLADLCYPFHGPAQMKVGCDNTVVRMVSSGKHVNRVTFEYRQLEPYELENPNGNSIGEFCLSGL

[3] = target: T2, Corticotropin-releasing factor receptor 2/Corticotropin-releasing factor-binding protein; test: activators of CRF receptor 2 with binding protein – uHTS hits, confirmation (AID 602473); assay type: functional; conditions: read-out: EC50_Mean
[4] = NIH-3T3 fibroblast cytotoxicity, dose response, cytotoxicity control, cell-based, fluorescence, Alamar Blue, secondary assay (AID 2327); assay type: functional;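 also: NIH-3T3 mouse fibroblasts cultured with fluconazole at 8 µg/mL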
[5] = fluconazole-exposed Candida albicans growth modulators – fluorescence, retest, confirmation (AID 2467); assay type: functional, cell-based
[6] = Trypanosoma cruzi growth suppression in host cells – NIH3T3 host cells, beta-gal luminescence, confirmation (AID 2044); assay type: functional, cell-based;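 also: intracellular parasites grown in NIH/3T3 mouse fibroblasts as host cells; luminescent beta-galactosidase reporter signal from transgenic T. cruzi replicating inside host cells; inhibitors lower the luminescence signal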
[7] = NIH3T3 cell viability loss – ATP luminescence, mouse fibroblasts, counter-screen, dose response (AID 2010); assay type: functional, cell-based;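 also: cells exposed to compound for about 90 hours before reading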
[8] = target: Cytochrome P450 2C9 (Homo sapiens, UniProt P11712)
[9] = tested on: H4; test: Luminescence Cell-Based Dose Response HTS to Identify Activators of 5'UTR Stem-Loop Driven Prion Protein mRNA Translation in H4 Neuroglioblastoma Cells. [Related pubchem assays: 1829 (Project Summary), 1814 (Primary HTS)]; assay type: functional; conditions: Homo sapiens
[10] = target: T3, Rac GTPase-activating protein 1 (Homo sapiens, UniProt Q9H0H5); test: blockers of MgcRacGAP-driven Rac1 GTP hydrolysis – biochemical, ADP Hunter fluorescence, primary and confirmatory, confirmation (AID 624330); assay type: functional
T3 sequence (Q9H0H5 whole entry): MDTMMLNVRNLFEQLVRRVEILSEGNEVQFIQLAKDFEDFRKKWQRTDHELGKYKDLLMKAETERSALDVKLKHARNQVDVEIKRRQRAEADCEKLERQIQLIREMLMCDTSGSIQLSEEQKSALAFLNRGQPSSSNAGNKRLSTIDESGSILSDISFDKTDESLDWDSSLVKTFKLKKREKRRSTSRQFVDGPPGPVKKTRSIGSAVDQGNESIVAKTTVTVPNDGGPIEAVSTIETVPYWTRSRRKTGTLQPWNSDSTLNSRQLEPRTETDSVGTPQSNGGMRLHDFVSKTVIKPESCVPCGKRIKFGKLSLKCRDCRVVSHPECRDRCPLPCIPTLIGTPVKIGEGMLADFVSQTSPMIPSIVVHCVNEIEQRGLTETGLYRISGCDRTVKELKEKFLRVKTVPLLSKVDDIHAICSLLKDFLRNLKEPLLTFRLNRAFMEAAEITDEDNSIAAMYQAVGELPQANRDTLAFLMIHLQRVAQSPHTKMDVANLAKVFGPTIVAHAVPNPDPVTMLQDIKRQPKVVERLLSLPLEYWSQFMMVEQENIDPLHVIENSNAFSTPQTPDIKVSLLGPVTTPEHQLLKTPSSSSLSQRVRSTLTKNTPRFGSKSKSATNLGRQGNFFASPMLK

[11] = Luminescence Cell-Based Dose Retest to Confirm Inhibitors of Cancer Stem Cells. [Related pubchem assays (depositor defined):AID2717, AID2721]; assay type: functional; conditions: Homo sapiens
[12] = tested on: Streptococcus sp. 'group A'; test: Streptococcus pyogenes SK(-)GAS viability under kanamycin – luminescence, BacTiterGlo, confirmation, counter-screen for streptokinase expression inhibitor project, dose response (AID 1900); assay type: functional, organism-based
[13] = tested on: Streptococcus; test: GAS UMAA2166 growth inhibition – luminescence, BacTiterGlo, counter-screen for streptokinase expression inhibitor project, dose response (AID 1915); assay type: functional, organism-based;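 also: potency for reduction of bacterial viability or growth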
[14] = tested on: INS1; test: INS-1E survival protection against cytokine death – cell-based, luminescence, retest, dose response (AID 449756); assay type: functional; conditions: Rattus norvegicus;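 also: cell death triggered by IL-1 beta plus TNF-alpha plus IFN-gamma mixture; protective hits raise ATP signal compared with cytokine alone wells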
[15] = P. falciparum Dd2 growth inhibitors, dose response, SYBR Green, cherry-picked samples (AID 1159567); assay type: functional, cell-based

Cytochrome P450 2C9, sequence (P11712 whole entry): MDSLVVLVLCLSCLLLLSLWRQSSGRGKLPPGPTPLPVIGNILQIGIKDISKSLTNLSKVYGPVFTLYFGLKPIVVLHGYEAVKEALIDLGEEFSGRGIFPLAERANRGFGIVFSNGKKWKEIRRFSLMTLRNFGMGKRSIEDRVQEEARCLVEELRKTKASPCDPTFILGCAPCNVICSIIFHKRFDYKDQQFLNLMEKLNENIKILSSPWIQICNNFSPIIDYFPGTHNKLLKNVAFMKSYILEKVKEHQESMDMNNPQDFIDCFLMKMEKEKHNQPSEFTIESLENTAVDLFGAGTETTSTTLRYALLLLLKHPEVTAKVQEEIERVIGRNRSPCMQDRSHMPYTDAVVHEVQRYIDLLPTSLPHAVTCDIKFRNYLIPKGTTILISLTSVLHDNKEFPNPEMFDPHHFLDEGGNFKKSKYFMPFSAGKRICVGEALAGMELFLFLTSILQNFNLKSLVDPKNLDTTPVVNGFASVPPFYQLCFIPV

CCCNC(=N)NCCC[C@H](N)C(=O)O
AC50 [1]: 31.6 µM (inconclusive)

CCOc1ccc(C(CCc2ccccc2)NC(=O)c2ccccc2OC)cc1OCC (configuration not stated)
IC50 [2]: > 47.1 µM (inactive) | EC50 [3]: > 53 µM (inactive)

O=C(NNC(=O)c1ccccc1C(=O)O)c1ccc(O)cc1
IC50 [2]: > 47.1 µM (inactive) | EC50 [3]: > 53 µM (inactive)

CS(=O)(=O)Oc1ccc(Br)c2cccnc12
IC50 [2]: > 47.1 µM (inactive) | EC50 [3]: > 53 µM (inactive)

Cc1c(C(=O)O)sc(S(=O)(=O)N2CCN(C(=O)Cc3ccc(F)cc3)CC2)c1C(=O)O
IC50 [2]: > 47.1 µM (inactive) | EC50 [3]: > 53 µM (inactive)

c1ccc(COc2ccccc2CNC23CC4CC(CC(C4)C2)C3)cc1
EC50 [4]: > 160 µM (inactive) | EC50 [5]: > 38 µM (not active) | EC50 [6]: 2.36 µM (active) | EC50 [7]: > 60 µM (not active)

CCOC(=O)c1c(NC(=O)Cn2nc([N+](=O)[O-])c(Br)c2C)sc2c1CCC(C)C2 (configuration not stated)
AC50 [1]: 2.82 µM (inconclusive) | AC50 [8]: 3.55 µM (inconclusive)

COc1ccc(C(=O)N2CCC3(CC2)CN(C(=O)Nc2ccccc2)C3)cc1
AC50 [1]: 25.1 µM (inconclusive)

COc1ccc(/C=C2\CCn3c2nc2ccccc2c3=O)cc1OC
EC50 [9]: 1.08 µM (active)

O=C(C1CCN(S(=O)(=O)c2cccc3nsnc23)CC1)N1CCCc2ccccc21
AC50 [1]: 10 µM (inconclusive) | AC50 [8]: 39.8 µM (inconclusive)

Cc1ccc(S(=O)(=O)c2nc(S(C)(=O)=O)sc2N2CCOCC2)cc1
IC50 [2]: > 47.1 µM (inactive) | EC50 [3]: > 53 µM (inactive)

O=C(CCCOc1ccc(Cl)cc1)Nc1cccc(C(=O)O)c1
IC50 [2]: > 47.1 µM (inactive) | EC50 [3]: > 53 µM (inactive)

COc1ccc(CN2CCN(Cc3ccccc3OC)CC2)cc1
IC50 [10]: 74.7 µM (active)

Cc1noc(C)c1S(=O)(=O)N1CCC(C(=O)N2CCN(c3ccc(Cl)cc3)CC2)CC1
IC50 [2]: > 47.1 µM (inactive) | EC50 [3]: > 53 µM (inactive)

c1cc2c(cc1CNc1ccc(N3CCOCC3)cc1)OCO2
IC50 [10]: 6.57 µM (active)

CCN(CC)c1ccc(N2C(=O)/C(=C/c3cccnc3)SC2=S)cc1
AC50 [1]: 6.31 µM (inconclusive)

CCCc1ccc(C(=O)NNc2ccc(F)cc2)cc1
EC50 [4]: 13 µM (inconclusive) | EC50 [5]: > 38 µM (not active) | AC50 [11]: 1.03 µM (active)

CN(C)c1ccc(/C=C2/C(=O)NC(=O)N(Cc3ccco3)C2=O)cc1
IC50 [10]: 142 µM (active)

O=C1N=C(N2CCOCC2)S/C1=C1\C(=O)N(Cc2ccccc2)c2ccccc21
EC50 [9]: 45 µM (inconclusive)

O=C(O)C[C@@H](C(=O)O)c1ccccc1[N+](=O)[O-]
AC50 [1]: 0.794 µM (inconclusive)

CC(C)NC1=NN=C(c2ccc(Cl)c(Cl)c2)CS1
EC50 [9]: 0.597 µM (active)

CC1CCCC(N2CCN(C(=O)c3ccc([N+](=O)[O-])cc3)CC2)C1 (configuration not stated)
IC50 [10]: 167 µM (active)

COc1ccc(C(=O)N2CCC[C@@]3(CCN(c4cccc(-c5ccccc5)c4)C3)C2)cc1
AC50 [1]: 12.6 µM (inconclusive)

CCN(CC)CCN(C(=O)c1ccc2ccccc2c1)c1nc2ccc(OC)cc2s1
EC50 [4]: > 160 µM (inactive) | EC50 [5]: > 38 µM (not active)

COc1ccc(C#Cc2c(-c3ccccc3)n(-c3ccccc3)c3ccc(CO)cc23)cc1
IC50 [2]: > 47.1 µM (inactive) | EC50 [3]: > 53 µM (inactive)

COc1ccc(NC(=O)CSc2nnc(C3CC3)n2N)cc1
AC50 [1]: 39.8 µM (inconclusive) | AC50 [8]: 28.2 µM (inconclusive)

CCN1C(=O)CC2CCCC1C2 (configuration not stated)
IC50 [2]: > 47.1 µM (inactive) | EC50 [3]: > 53 µM (inactive)

CCN(CC)c1ccc(/C=N/NC(=O)OC)c(O)c1
IC50 [10]: 66 µM (active)

COc1cc(OC)c2cc(C(=O)N/N=C/c3ccccc3O)[nH]c2c1
EC50 [4]: 23.1 µM (active) | EC50 [12]: 0.781 µM (active) | EC50 [5]: 1.47 µM (active) | EC50 [13]: 7.68 µM (active) | AC50 [14]: 3.06 µM (active)

COc1cc(C=C2CN(C)C(=O)C2=O)ccc1O
IC50 [10]: 19.6 µM (active)

O=C(N/N=C/c1ccc(O)c2ccccc12)c1cccnc1
IC50 [10]: 127 µM (active)

CO[C@H]1CN(C)C(=O)c2cc(NC(=O)c3nc4ccccc4s3)ccc2OC[C@@H](C)NC[C@@H]1C
AC50 [15]: 7.49 µM (active)

COc1cccc(C#Cc2ccc([C@H]3[C@@H](C#N)N(C(=O)C4CCCC4)[C@@H]3CO)cc2)c1
AC50 [15]: 5.62 µM (active)

COc1cccc(-c2ccc3c(c2)[C@H]2[C@H](CCN2C(=O)C2CCCC2)[C@@H](CO)N3)c1
AC50 [15]: 6.77 µM (active)

CCC(=O)N1CC2(C1)[C@@H](c1ccc(-c3cccc(OC)c3)cc1)[C@@H](CO)N2C(C)=O
AC50 [15]: 22.2 µM (active)

COc1ccc(S(=O)(=O)N(C)C[C@@H]2OCc3ccccc3-c3c(n(C)c4ccccc34)C(=O)N([C@H](C)CO)C[C@H]2C)cc1
AC50 [15]: 4.65 µM (active)

Cc1ccc(-c2ccc3c(c2)O[C@@H](CN(C)Cc2cccnc2)[C@@H](C)CN([C@@H](C)CO)S3(=O)=O)cc1
AC50 [15]: 5.62 µM (active)

Cc1ccc(-c2ccc([C@H]3[C@@H]4CN(S(=O)(=O)c5ccccc5)C[C@H]3N4)cc2)cc1
AC50 [15]: 3.66 µM (active)

COc1cccc(NC(=O)Nc2ccc3c(c2)C(=O)N(C)C[C@@H](OC)[C@H](C)CN[C@@H](C)CO3)c1
AC50 [15]: 22.8 µM (active)

CSc1ccc2c(c1)N(CCCN(C)C)c1ccccc1S2
AC50 [1]: 1.26 µM (inconclusive)
